One assay relates to BdorOBP2. The note with it: ref 39; cited from earlier work.
A further assay addresses T1, Or10a (Drosophila melanogaster, UniProt Q9VYZ1).
T1 sequence (Q9VYZ1 1-406): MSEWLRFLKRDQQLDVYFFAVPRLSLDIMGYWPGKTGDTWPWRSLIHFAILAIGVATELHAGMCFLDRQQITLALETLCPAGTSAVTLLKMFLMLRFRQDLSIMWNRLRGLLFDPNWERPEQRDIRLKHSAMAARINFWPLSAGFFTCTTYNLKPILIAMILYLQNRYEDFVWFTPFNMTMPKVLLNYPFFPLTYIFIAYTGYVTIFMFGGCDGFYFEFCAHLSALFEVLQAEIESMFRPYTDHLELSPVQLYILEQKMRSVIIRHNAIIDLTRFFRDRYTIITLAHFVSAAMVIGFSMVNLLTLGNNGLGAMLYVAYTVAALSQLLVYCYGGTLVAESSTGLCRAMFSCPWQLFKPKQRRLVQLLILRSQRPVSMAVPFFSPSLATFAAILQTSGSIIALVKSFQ
Kind of assay: EIS sensor, Or10a liposomes on gold electrode (Example 1). Format: binding. The note with it: lowest three concentrations. The method, then:
(§1) Liposomes were prepared using a phospholipid solution produced by evaporating solutions containing: phosphatidylethanolamine (PE), phosphatidylserine (PS), phosphatidylcholine (PC), and cholesterol (CH) at a molar ratio of 5:3:3:1 in a small glass tube under a stream of N2 gas, then desiccating under vacuum for 1 h. […] To promote the formation of liposomes, 10 freeze/thaw steps were performed by transferring the tube from liquid nitrogen to a 40° C. water bath. Liposomes were then sized by passing the lipid solution 11 times through a 100-nm polycarbonate membrane using an Avestin LiposoFAST extruder unit (Avestin, Germany). Glycerol was added at 10% of the final volume and aliquots at 10 mg/mL were snap frozen in liquid nitrogen and stored at -80° C. Prior to their use, liposomes were defrosted on ice and then destabilized by incubating with 0.2% CHAPS for 15 min at room temperature. Then 200 μg of purified odorant receptor^14 was added to 1 mg of liposomes and rotated at 10 rpm for 1 h at room temperature. […] The Bio-Beads were removed after each incubation period. The OR integrated liposomes were pelleted by centrifugation at 100,000 g for 1 h, and were resuspended in 500 μL of rehydration buffer. Integration of OrXs into liposomes was assessed by density gradient ultracentrifugation (DGU) using Accudenz (Accurate Chemical & Scientific Corporation, USA). […] The sample was then centrifuged at 100,000 g for 4 h at 4° C. Liposomes will float to the top of the gradient after Accudenz DGU due to their low density. 1.3 Electrode Cleaning Gold disk (2 mm) electrodes were cleaned with polishing with Alumina paste for 2 minutes, ultra-sonicated in pure ethanol and then Milli-Q water for 5 minutes each. […] Charge transfer resistance (Rct) of electrodes were calculated by fitting obtained data to a Randles' equivalent circuit [Rs+CPE/(Rct+W)] comprising of a solution resistance (Rs) in series with a constant phase element (CPE) and in parallel with charge transfer resistance (Rct) and Warburg diffusion element. […]

A further assay has as its target T2, OR35a (Drosophila melanogaster, UniProt Q9V3Q2).
T2 sequence (Q9V3Q2 1-409): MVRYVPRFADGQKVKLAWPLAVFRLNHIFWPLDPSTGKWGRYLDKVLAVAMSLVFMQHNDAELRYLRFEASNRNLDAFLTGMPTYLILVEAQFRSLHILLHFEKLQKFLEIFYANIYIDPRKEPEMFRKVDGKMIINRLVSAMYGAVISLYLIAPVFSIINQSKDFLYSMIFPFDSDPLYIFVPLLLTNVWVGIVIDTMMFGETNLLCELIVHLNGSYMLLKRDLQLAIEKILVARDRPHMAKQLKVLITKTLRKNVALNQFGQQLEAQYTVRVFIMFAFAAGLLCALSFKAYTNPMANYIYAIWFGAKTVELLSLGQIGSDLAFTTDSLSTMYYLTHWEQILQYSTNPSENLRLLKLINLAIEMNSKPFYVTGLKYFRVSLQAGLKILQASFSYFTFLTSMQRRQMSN
Kind of assay: EIS sensor, Or35a liposomes on gold electrode (Example 1). Type of assay: binding. The note with it: lowest three concentrations. The method, then: as §1

The target of another assay is T3, Or22a (Drosophila melanogaster, UniProt P81909).
T3 sequence (P81909 1-397): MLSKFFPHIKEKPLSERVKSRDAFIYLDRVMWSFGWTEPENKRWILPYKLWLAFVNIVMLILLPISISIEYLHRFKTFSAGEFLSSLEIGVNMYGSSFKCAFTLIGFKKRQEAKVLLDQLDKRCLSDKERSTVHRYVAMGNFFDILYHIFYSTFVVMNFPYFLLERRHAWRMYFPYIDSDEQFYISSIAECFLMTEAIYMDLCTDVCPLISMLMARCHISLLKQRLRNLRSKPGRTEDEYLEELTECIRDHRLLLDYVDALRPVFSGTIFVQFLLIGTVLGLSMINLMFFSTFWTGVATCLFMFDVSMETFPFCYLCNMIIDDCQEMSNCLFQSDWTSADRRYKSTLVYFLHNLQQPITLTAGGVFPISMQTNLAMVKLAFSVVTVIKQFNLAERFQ
Kind of assay: EIS sensor, Or22a liposomes on gold electrode (Example 1). Type of assay: binding. The note with it: lowest three concentrations. The method, then: as §1

As to `C=CCc1ccc(OC)c(OC)c1` [4-allylveratrole], the detection limit with BdorOBP2 was ~10^−6 M. `COC(=O)c1ccc(O)cc1` [methy-p-hydroxyl benzoate]: in the assay on BdorOBP2, the detection limit is on record as ~10^−6 M. For `CC(=O)/C=C/C1=C(C)CCCC1(C)C` [β-ionone], the detection limit in the assay on BdorOBP2 is ~10^−6 M. Consider `CCCCOC(=O)c1ccccc1C(=O)OCCCC` [dibutyl phthalate], for which, in the assay on BdorOBP2, the detection limit is ~10^−6 M. On to `CC(=O)OCCC(C)C` [isoamyl acetate], for which the detection limit with BdorOBP2 was ~10^−6 M. Turning to `O=CCc1ccccc1` [phenylacetaldehyde], in the assay with BdorOBP2, the detection limit is given as ~10^−6 M.

B1: Or10a: insect odorant receptor OrX in liposomes attached to the gold electrode of the EIS sensor (protein, UniProt Q9VYZ1 1-406, looked up)
Odorant receptor 10a: T1 sequence (Q9VYZ1 1-406)
modifications: in liposomes
notes: insect odorant receptor OrX in liposomes attached to the gold electrode of the EIS sensor
As for B1, the “Sensitivity of the sensor (slope of the linear range)” value in the assay with Or10a is 0.313 units/[log(conc/M)].

B2: Or35a: insect odorant receptor OrX in liposomes attached to the gold electrode of the EIS sensor (protein, UniProt Q9V3Q2 1-409, looked up)
Odorant receptor 35a: T2 sequence (Q9V3Q2 1-409)
modifications: in liposomes
notes: as for B1
For the molecule B2, in the assay with OR35a, the “Sensitivity of the sensor (slope of the linear range)” value is 0.116 units/[log(conc/M)].

B3: Or22a: insect odorant receptor OrX in liposomes attached to the gold electrode of the EIS sensor (protein, UniProt P81909 1-397, looked up)
Odorant receptor 22a: T3 sequence (P81909 1-397)
modifications: in liposomes
notes: as for B1
On to B3, for which the “Sensitivity of the sensor (slope of the linear range)” value with Or22a was 0.156 units/[log(conc/M)].

The values are drawn from US12044651B2, “Sensor device and methods” (SCENTIAN BIO LIMITED, priority 2016, dated 2024).
